In brackets after ≈: the same amount, converted by molar mass.
Assays:
Type in all cases: functional
[1] = system: Mycobacterium tuberculosis; assay: AntiMycobacterium tuberculosis activity Non-Replicating form: Average MIC90 (uM)
[2] = system: Mycobacterium tuberculosis; assay: AntiMycobacterium tuberculosis activity 1-week GAST/Fe MIC (uM); conditions: 168 h
[3] = system: Mycobacterium tuberculosis; assay: AntiMycobacterium tuberculosis activity 2-week GAST/Fe MIC (uM); conditions: 336 h
[4] = system: Mycobacterium tuberculosis; assay: AntiMycobacterium tuberculosis activity 1-week 7H9/ADC/Tw MIC (uM); conditions: 168 h
[5] = system: Mycobacterium tuberculosis; assay: AntiMycobacterium tuberculosis activity 2-week 7H9/ADC/Tw MIC (uM); conditions: 336 h
[6] = system: Mycobacterium tuberculosis; assay: AntiMycobacterium tuberculosis activity 2-week Alamar Blue 7H9/ADC/Tw MIC (uM); conditions: 336 h
[7] = system: Mycobacterium tuberculosis; assay: AntiMycobacterium tuberculosis activity 1-week 7H9/glucose/BSA/Tx MIC (uM); conditions: 168 h
[8] = system: Mycobacterium tuberculosis; assay: AntiMycobacterium tuberculosis activity 2-week 7H9/glucose/BSA/Tx MIC (uM); conditions: 336 h
[9] = system: Mycobacterium tuberculosis; assay: AntiMycobacterium tuberculosis activity 1-week 7H9/DPPC/cholesterol/BSA/Tx MIC (uM); conditions: 168 h
[10] = system: Mycobacterium tuberculosis; assay: AntiMycobacterium tuberculosis activity 2-week 7H9/DPPC/cholesterol/BSA/Tx MIC (uM); conditions: 336 h
[11] = system: Mycobacterium tuberculosis; assay: AntiMycobacterium tuberculosis activity 1-week 7H9/cholesterol/BSA/Tx MIC (uM); conditions: 168 h
[12] = system: Mycobacterium tuberculosis; assay: AntiMycobacterium tuberculosis activity 2-week Alamar Blue 7H9/cholesterol/BSA/Tx MIC (uM); conditions: 336 h
[13] = system: Mycobacterium tuberculosis; assay: (§1) AntiMycobacterium tuberculosis activity day 10 in 7H9/2.5mM butyrate/pH6/0.1mM nitrite MIC90 (uM); conditions: 240 h
[14] = system: Mycobacterium tuberculosis; assay: AntiMycobacterium tuberculosis activity day 21 in 7H9/2.5mM butyrate/pH6/0.1mM nitrite MIC90 (uM); conditions: 504 h
[15] = system: Mycobacterium tuberculosis; assay: as §1; conditions: 240 h; remark: listed apart in the source
[16] = system: Mycobacterium tuberculosis; assay: AntiMycobacterium tuberculosis activity day 21 MIC99 in 7H9/2.5mM butyrate/pH6/0.1mM nitrite MIC99 (uM); conditions: 504 h
[17] = system: Mycobacterium tuberculosis; assay: AntiMycobacterium tuberculosis activity Replicating form: Average MIC90 (uM)
[18] = system: HepG2; assay: HepG2 CC50 (uM) Cytotoxicity; conditions: Homo sapiens

SMILES | MIC90 [1] | MIC [2] | MIC [3] | MIC [4] | MIC [5] | MIC [6] | MIC [7] | MIC [8] | MIC [9] | MIC [10] | MIC [11] | MIC [12] | MIC90 [13] | MIC90 [14] | MIC90 [15] | MIC [16] | MIC90 [17] | CC50 [18]
O=C(Nc1cccnc1)c1c(O)c2cccc3c2n(c1=O)CC3 | 7.75 µM (≈ 2.38 µg/mL) | 3.13 µM (≈ 0.962 µg/mL) | 3.13 µM (≈ 0.962 µg/mL) | 25 µM (≈ 7.68 µg/mL) | 25 µM (≈ 7.68 µg/mL) | 25 µM (≈ 7.68 µg/mL) | 6.25 µM (≈ 1.92 µg/mL) | 9.4 µM (≈ 2.89 µg/mL) | 12.5 µM (≈ 3.84 µg/mL) | 12.5 µM (≈ 3.84 µg/mL) | 12.5 µM (≈ 3.84 µg/mL) | 12.5 µM (≈ 3.84 µg/mL) | 6.25 µM (≈ 1.92 µg/mL) | 12.5 µM (≈ 3.84 µg/mL) | > 50 µM | > 50 µM | 8.35 µM (≈ 2.57 µg/mL) | > 100 µM
O=C(C1CCN(c2cc(-n3cccc3)ncn2)CC1)N1CCc2ccccc2C1 | 7.62 µM (≈ 2.95 µg/mL) | 0.39 µM (≈ 0.151 µg/mL) | 0.6 µM (≈ 0.232 µg/mL) | 0.78 µM (≈ 0.302 µg/mL) | 1.56 µM (≈ 0.604 µg/mL) | 1.56 µM (≈ 0.604 µg/mL) | 2.3 µM (≈ 0.891 µg/mL) | 2.3 µM (≈ 0.891 µg/mL) | 3.13 µM (≈ 1.21 µg/mL) | 3.13 µM (≈ 1.21 µg/mL) | 3.13 µM (≈ 1.21 µg/mL) | 3.13 µM (≈ 1.21 µg/mL) | 12.5 µM (≈ 4.84 µg/mL) | 50 µM (≈ 19.4 µg/mL) | > 50 µM | > 50 µM | 7.41 µM (≈ 2.87 µg/mL) | > 100 µM
O=C(NC1=NCCS1)c1sc2cc(F)ccc2c1Cl | 39.3 µM (≈ 12.4 µg/mL) | 0.6 µM (≈ 0.189 µg/mL) | 1.2 µM (≈ 0.378 µg/mL) | > 50 µM | > 50 µM | 9.4 µM (≈ 2.96 µg/mL) | > 50 µM | > 50 µM | 6.25 µM (≈ 1.97 µg/mL) | > 50 µM | 3.13 µM (≈ 0.985 µg/mL) | 3.13 µM (≈ 0.985 µg/mL) | 3.12 µM (≈ 0.982 µg/mL) | 12.5 µM (≈ 3.93 µg/mL) | 3.12 µM (≈ 0.982 µg/mL) | 12.5 µM (≈ 3.93 µg/mL) | > 100 µM | > 100 µM
CC(C)n1ncc2c(C(=O)NCC(c3cccs3)N3CCOCC3)cc(-c3ccccc3)nc21 (configuration not stated) | 1.28 µM (≈ 0.609 µg/mL) | 0.3 µM (≈ 0.143 µg/mL) | 0.3 µM (≈ 0.143 µg/mL) | 0.78 µM (≈ 0.371 µg/mL) | 1.2 µM (≈ 0.571 µg/mL) | 1.2 µM (≈ 0.571 µg/mL) | 1.2 µM (≈ 0.571 µg/mL) | 1.2 µM (≈ 0.571 µg/mL) | 0.78 µM (≈ 0.371 µg/mL) | 0.78 µM (≈ 0.371 µg/mL) | 0.6 µM (≈ 0.285 µg/mL) | 1.56 µM (≈ 0.742 µg/mL) | 3.12 µM (≈ 1.48 µg/mL) | 3.12 µM (≈ 1.48 µg/mL) | 1.5 µM (≈ 0.713 µg/mL) | 1.5 µM (≈ 0.713 µg/mL) | 0.61 µM (≈ 0.29 µg/mL) | 58 µM
COc1ccccc1OCCCCn1c(C2CC2)nc2ccccc21 | 16.4 µM (≈ 5.52 µg/mL) | 0.2 µM (≈ 0.0673 µg/mL) | 0.6 µM (≈ 0.202 µg/mL) | > 50 µM | > 50 µM | 19 µM (≈ 6.39 µg/mL) | 37 µM (≈ 12.4 µg/mL) | > 50 µM | 9.4 µM (≈ 3.16 µg/mL) | 37 µM (≈ 12.4 µg/mL) | 3.13 µM (≈ 1.05 µg/mL) | 4.7 µM (≈ 1.58 µg/mL) | 6.25 µM (≈ 2.1 µg/mL) | 25 µM (≈ 8.41 µg/mL) | 50 µM (≈ 16.8 µg/mL) | > 50 µM | > 100 µM | 100 µM
CCCn1c(CNc2ccccc2O)nc2ccccc21 | 7.04 µM (≈ 1.98 µg/mL) | 1.56 µM (≈ 0.439 µg/mL) | 1.56 µM (≈ 0.439 µg/mL) | 9.4 µM (≈ 2.64 µg/mL) | 9.4 µM (≈ 2.64 µg/mL) | 6.25 µM (≈ 1.76 µg/mL) | 12.5 µM (≈ 3.52 µg/mL) | 12.5 µM (≈ 3.52 µg/mL) | 6.25 µM (≈ 1.76 µg/mL) | 6.25 µM (≈ 1.76 µg/mL) | 6.25 µM (≈ 1.76 µg/mL) | 6.25 µM (≈ 1.76 µg/mL) | 3.12 µM (≈ 0.878 µg/mL) | 6.25 µM (≈ 1.76 µg/mL) | > 50 µM | > 50 µM | 12.7 µM (≈ 3.57 µg/mL) | 84.1 µM
CCc1nc2ccccc2n1CC(O)COc1cc(C)ccc1Cl (configuration not stated) | 70 µM (≈ 24.1 µg/mL) | 12.5 µM (≈ 4.31 µg/mL) | 12.5 µM (≈ 4.31 µg/mL) | 37 µM (≈ 12.8 µg/mL) | ≥ 50 µM | 37 µM (≈ 12.8 µg/mL) | 37 µM (≈ 12.8 µg/mL) | ≥ 50 µM | 12.5 µM (≈ 4.31 µg/mL) | 25 µM (≈ 8.62 µg/mL) | 9.4 µM (≈ 3.24 µg/mL) | 9.4 µM (≈ 3.24 µg/mL) | 25 µM (≈ 8.62 µg/mL) | 50 µM (≈ 17.2 µg/mL) | > 50 µM | > 50 µM | 78 µM (≈ 26.9 µg/mL) | 43.2 µM
FC(F)(F)c1nnc2ccc(Cl)nn12 | 7.75 µM (≈ 1.72 µg/mL) | 0.6 µM (≈ 0.134 µg/mL) | 1.2 µM (≈ 0.267 µg/mL) | 3.13 µM (≈ 0.697 µg/mL) | 6.25 µM (≈ 1.39 µg/mL) | 4.7 µM (≈ 1.05 µg/mL) | 3.13 µM (≈ 0.697 µg/mL) | 4.7 µM (≈ 1.05 µg/mL) | 4.7 µM (≈ 1.05 µg/mL) | 6.25 µM (≈ 1.39 µg/mL) | 4.7 µM (≈ 1.05 µg/mL) | 6.25 µM (≈ 1.39 µg/mL) | 3.12 µM (≈ 0.694 µg/mL) | 50 µM (≈ 11.1 µg/mL) | > 50 µM | > 50 µM | 6.37 µM (≈ 1.42 µg/mL) | > 100 µM
c1ccc(C[C@@H]2CN(c3nccc(Oc4ccc(-n5ccnc5)cc4)n3)CCN2)cc1 | 38.1 µM (≈ 15.7 µg/mL) | 37 µM (≈ 15.3 µg/mL) | 37 µM (≈ 15.3 µg/mL) | 50 µM (≈ 20.6 µg/mL) | 50 µM (≈ 20.6 µg/mL) | 19 µM (≈ 7.84 µg/mL) | 37 µM (≈ 15.3 µg/mL) | 50 µM (≈ 20.6 µg/mL) | 25 µM (≈ 10.3 µg/mL) | 37 µM (≈ 15.3 µg/mL) | 9.4 µM (≈ 3.88 µg/mL) | 12.5 µM (≈ 5.16 µg/mL) | 25 µM (≈ 10.3 µg/mL) | 25 µM (≈ 10.3 µg/mL) | 50 µM (≈ 20.6 µg/mL) | 50 µM (≈ 20.6 µg/mL) | 16.5 µM (≈ 6.82 µg/mL) | 29 µM
